Experiment: pH-profile drug release in dialysis bag, consecutive simulated gastrointestinal media
Type: physicochemical
Protocol: Rv (Sigma-Aldrich, USA) stock solution of 15 μg/mL was prepared in distilled water. Using UV spectrophotometric analysis (Shimadzu-UV-Vis Spectrophotometers, Japan), the analysis was conducted at a wavelength of 306 nm in a 1 cm cell compared to a blank solution of distilled water. To construct a calibration curve, dilutions had been prepared (FIG. 1). The ? -max selection was based on the UV-scanning from 200-400 nm of pure Rv solution. The formulations' drug-content assays for drug encapsulation efficiency were accomplished by dissolving the formulation in ethanol and centrifuging it for 30 minutes at 1500 rpm. After that, an accurate volume of the supernatant transparent layer had been measured for UV-absorbance at 306 nm for Rv content. This ? -max was unique for Rv only (Zhang Lingtuo et al. 2019).
The formulations in Table 1 containing 500 mg of the Rv were each encountered in the dialysis bag (14000 Daltons cut off, Sigma-Aldrich, USA). The dry weights of the formulations were reconstituted with distilled water before enclosing them inside the dialysis bag. The release media volume was 300 mL. The drug-release experiment was designed to simulate the gastrointestinal-pH and transit time after oral ingestion. As a result, the dialysis membranes' surrounding media simulated gastric media (0.1N HCl-pH 1.2), proximal intestine simulated media (phosphate buffer-pH 6.5), the distal area of the small intestine (phosphate buffer-pH 6.8), and phosphate buffer media-pH 7.4 of descending colon simulated media, consecutively. The transit time for each simulated media was two hrs (Amidon et al. 2015; Maurer et al. 2015; Bani-Jaber and Abdullah 2020). The dialysis membranes were subjected to 37±0.5° C. in a water bath shaker of 75 rpm speed. Total release media replacement was made after each hour of dissolution to simulate body sink conditions. This experiment was conducted to optimize the formulation depending on SR behavior and drug encapsulation efficiency. The optimum formula was subjected to aging, gel swelling studies, nanoparticle, and formulation's physiochemical characterizations.

3,5,4-trihydroxytrans-stilbene [Rv]
Gastric % Release (0.1N HCl pH 1.2, 2 hrs, 37°C, 500 mg Rv, freshly prepared): 16.83%
average total pH-profile release after 8 hrs (pH 1.2, 6.5, 6.8, 7.4, 2 hrs each): 50.89%
Intestinal-Colonic % Release (pH 6.5, 6.8 and 7.4 media together (6 hrs), freshly prepared): 34.06%
Proximal Intestine % Release (phosphate buffer pH 6.5, 2 hrs, freshly prepared): 11.49%
Distal Intestine % Release (phosphate buffer pH 6.8, 2 hrs, freshly prepared): 12.74%
Colon % Release (phosphate buffer pH 7.4, 2 hrs, freshly prepared): 9.83%

Reference: patent US11318090B1, “In situ gelling composition as a pH-selective and mucoadhesive sustained release drug delivery system” (King Abdulaziz University, priority 2021, dated 2022)
